Source: patent publication US7851469B2, “Isoxazole-imidazole derivatives” (Hoffmann-La Roche Inc., priority 2007, dated 2010)

Molecular target: T1, GABA A receptor α5β3γ2 (hα5) (Homo sapiens, UniProt P18507+P31644)
T1 construct: expressed in transfected cells; host or cells: HEK293 (transiently transfected; membranes)
Assay: [3H]flumazenil competition binding assay, human GABA A α5 receptor
Conditions: displacement of [3H]flumazenil (0.5 nM) from HEK293 cell membranes expressing α5β3γ2; means of two determinations
Method: Membrane Preparation and Binding Assay
The affinity of compounds at GABA A receptor subtypes was measured by competition for [3H]flumazenil (85 Ci/mmol; Roche) binding to HEK293 cells expressing rat (stably transfected) or human (transiently transfected) receptors of composition α1β3γ2, α2β3γ2, α3β3γ2 and α5β3γ2.
Cell pellets were suspended in Krebs-tris buffer (4.8 mM KCl, 1.2 mM CaCl2, 1.2 mM MgCl2, 120 mM NaCl, 15 mM Tris; pH 7.5; binding assay buffer), homogenized by polytron for ca. 20 sec on ice and centrifuged for 60 min at 4° C. (50000 g; Sorvall, rotor: SM24=20000 rpm). The cell pellets were resuspended in Krebs-tris buffer and homogenized by polytron for ca. 15 sec on ice. Protein was measured (Bradford method, Bio-Rad) and aliquots of 1 mL were prepared and stored at −80° C.
Radioligand binding assays were carried out in a volume of […] (96-well plates) which contained […] of cell membranes, [3H]flumazenil at a concentration of 1 nM for α1, α2, α3 subunits and 0.5 nM for α5 subunits and the test compound in the range of […]. Nonspecific binding was defined by 10^−5 M diazepam and typically represented less than 5% of the total binding. Assays were incubated to equilibrium for 1 hour at 4° C. and harvested onto GF/C uni-filters (Packard) by filtration using a Packard harvester and washing with ice-cold wash buffer (50 mM Tris; pH 7.5). After drying, filter-retained radioactivity was detected by liquid scintillation counting. Ki values were calculated using Excel-Fit (Microsoft) and are the means of two determinations.

| Structure (SMILES) | Ki |
| --- | --- |
| CC(=O)c1ccc(-n2cnc(-c3c(-c4ccccc4)noc3C(F)(F)F)c2)cc1 [Example 3, 1-{4-[4-(3-Phenyl-5-trifluoromethyl-isoxazol-4-yl)-imidazol-1-yl]-phenyl}-ethanone] | 12.5 nM |
| O=[N+]([O-])c1ccc(-n2cnc(-c3c(-c4ccccc4)noc3C(F)(F)F)c2)cc1 [Example 7, 4-[1-(4-Nitro-phenyl)-1H-imidazol-4-yl]-3-phenyl-5-trifluoromethyl-isoxazole] | 19.7 nM |
| Cc1ccc(-n2cnc(-c3c(-c4ccccc4)noc3C(F)(F)F)c2)cc1 [Example 8, 3-Phenyl-4-(1-p-tolyl-1H-imidazol-4-yl)-5-trifluoromethyl-isoxazole] | 84.2 nM |
| O=C(NCC1CC1)c1ccc(-n2cnc(-c3c(-c4ccccc4)noc3C(F)(F)F)c2)cc1 [Example 10, N-Cyclopropylmethyl-4-[4-(3-phenyl-5-trifluoromethyl-isoxazol-4-yl)-imidazol-1-yl]-benzamide] | 23.6 nM |
| O=C(NCC(F)(F)F)c1ccc(-n2cnc(-c3c(-c4ccccc4)noc3C(F)(F)F)c2)cc1 [Example 11, 4-[4-(3-Phenyl-5-trifluoromethyl-isoxazol-4-yl)-imidazol-1-yl]-N-(2,2,2-trifluoro-ethyl)-benzamide] | 17.6 nM |
| COC(=O)c1ccc(-n2cnc(-c3c(-c4ccc(F)cc4)noc3C(F)(F)F)c2)cc1 [Example 27, 4-{4-[3-(4-Fluoro-phenyl)-5-trifluoromethyl-isoxazol-4-yl]-imidazol-1-yl}-benzoic acid methyl ester] | 22.1 nM |
| O=C(O)c1ccc(-n2cnc(-c3c(-c4ccc(F)cc4)noc3C(F)(F)F)c2)cc1 [Example 28, 4-{4-[3-(4-Fluoro-phenyl)-5-trifluoromethyl-isoxazol-4-yl]-imidazol-1-yl}-benzoic acid] | 76.7 nM |
| NC(=O)c1ccc(-n2cnc(-c3c(-c4ccc(F)cc4)noc3C(F)(F)F)c2)cc1 [Example 31, 4-{4-[3-(4-Fluoro-phenyl)-5-trifluoromethyl-isoxazol-4-yl]-imidazol-1-yl}-benzamide] | 17.1 nM |
| CC(=O)c1ccc(-n2cnc(-c3c(-c4ccc(F)cc4)noc3C(F)(F)F)c2)nc1 [Example 36, 1-(6-{4-[3-(4-Fluoro-phenyl)-5-trifluoromethyl-isoxazol-4-yl]-imidazol-1-yl}-pyridin-3-yl)-ethanone] | 17.2 nM |
| N#Cc1ccc(-n2cnc(-c3c(-c4ccc(F)cc4)noc3C(F)(F)F)c2)nc1 [Example 37, 6-{4-[3-(4-Fluoro-phenyl)-5-trifluoromethyl-isoxazol-4-yl]-imidazol-1-yl}-nicotinonitrile] | 32.3 nM |
| O=C(NCC(F)(F)F)c1ccc(-n2cnc(-c3c(-c4ccc(F)cc4)noc3C(F)(F)F)c2)nc1 [Example 39, 6-{4-[3-(4-Fluoro-phenyl)-5-trifluoromethyl-isoxazol-4-yl]-imidazol-1-yl}-N-(2,2,2-trifluoro-ethyl)-nicotinamide] | 4.9 nM |
| CC(C)(O)c1ccc(-n2cnc(-c3c(-c4ccc(F)cc4)noc3C(F)(F)F)c2)nc1 [Example 43, 2-(6-{4-[3-(4-Fluoro-phenyl)-5-trifluoromethyl-isoxazol-4-yl]-imidazol-1-yl}-pyridin-3-yl)-propan-2-ol] | 38.2 nM |
| O=[N+]([O-])c1ccc(-n2cnc(-c3c(-c4ccc(Cl)cc4)noc3C(F)(F)F)c2)cc1 [Example 47, 3-(4-Chloro-phenyl)-4-[1-(4-nitro-phenyl)-1H-imidazol-4-yl]-5-trifluoromethyl-isoxazole] | 58.6 nM |

Results, then the compound that gave them:

| Ki | Structure (SMILES) |
| --- | --- |
| 53.2 nM | FC(F)(F)c1onc(-c2ccccc2)c1-c1cn(-c2ccccc2)cn1 [Example 1, 3-Phenyl-4-(1-phenyl-1H-imidazol-4-yl)-5-trifluoromethyl-isoxazole] |
| 39.7 nM | FC(F)(F)c1ccc(-n2cnc(-c3c(-c4ccccc4)noc3C(F)(F)F)c2)cc1 [Example 4, 3-Phenyl-5-trifluoromethyl-4-[1-(4-trifluoromethyl-phenyl)-1H-imidazol-4-yl]-isoxazole] |
| 41.2 nM | N#Cc1ccc(-n2cnc(-c3c(-c4ccccc4)noc3C(F)(F)F)c2)cc1 [Example 5, 4-[4-(3-Phenyl-5-trifluoromethyl-isoxazol-4-yl)-imidazol-1-yl]-benzonitrile] |
| 46.1 nM | COc1ccc(-n2cnc(-c3c(-c4ccccc4)noc3C(F)(F)F)c2)cc1 [Example 9, 4-[1-(4-Methoxy-phenyl)-1H-imidazol-4-yl]-3-phenyl-5-trifluoromethyl-isoxazole] |
| 11.7 nM | O=C(NC1CC1)c1ccc(-n2cnc(-c3c(-c4ccccc4)noc3C(F)(F)F)c2)cc1 [Example 12, N-Cyclopropyl-4-[4-(3-phenyl-5-trifluoromethyl-isoxazol-4-yl)-imidazol-1-yl]-benzamide] |
| 41.2 nM | O=C(NC1CCOCC1)c1ccc(-n2cnc(-c3c(-c4ccccc4)noc3C(F)(F)F)c2)cc1 [Example 13, 4-[4-(3-Phenyl-5-trifluoromethyl-isoxazol-4-yl)-imidazol-1-yl]-N-(tetrahydro-pyran-4-yl)-benzamide] |
| 31.5 nM | COC(=O)c1ccc(-n2cnc(-c3c(-c4ccccc4)noc3C(F)(F)F)c2)nc1 [Example 17, 6-[4-(3-Phenyl-5-trifluoromethyl-isoxazol-4-yl)-imidazol-1-yl]-nicotinic acid methyl ester] |
| 91.1 nM | O=C(c1ccc(-n2cnc(-c3c(-c4ccccc4)noc3C(F)(F)F)c2)nc1)N1CCSCC1 [Example 23, {6-[4-(3-Phenyl-5-trifluoromethyl-isoxazol-4-yl)-imidazol-1-yl]-pyridin-3-yl}-thiomorpholin-4-yl-methanone] |
| 28.4 nM | CC(C)(O)c1ccc(-n2cnc(-c3c(-c4ccc(F)cc4)noc3C(F)(F)F)c2)cc1 [Example 29, 2-(4-{4-[3-(4-Fluoro-phenyl)-5-trifluoromethyl-isoxazol-4-yl]-imidazol-1-yl}-phenyl)-propan-2-ol] |
| 87.4 nM | O=C(c1ccc(-n2cnc(-c3c(-c4ccc(F)cc4)noc3C(F)(F)F)c2)cc1)N1CCS(=O)(=O)CC1 [Example 35, (1,1-Dioxo-1λ6-thiomorpholin-4-yl)-(4-{4-[3-(4-fluoro-phenyl)-5-trifluoromethyl-isoxazol-4-yl]-imidazol-1-yl}-phenyl)-methanone] |
| 4.1 nM | O=C(NC1CC1)c1ccc(-n2cnc(-c3c(-c4ccc(F)cc4)noc3C(F)(F)F)c2)nc1 [Example 40, N-Cyclopropyl-6-{4-[3-(4-fluoro-phenyl)-5-trifluoromethyl-isoxazol-4-yl]-imidazol-1-yl}-nicotinamide] |
| 8.5 nM | O=C(NC1CCOCC1)c1ccc(-n2cnc(-c3c(-c4ccc(Cl)cc4)noc3C(F)(F)F)c2)nc1 [Example 51, 6-{4-[3-(4-Chloro-phenyl)-5-trifluoromethyl-isoxazol-4-yl]-imidazol-1-yl}-N-(tetrahydro-pyran-4-yl)-nicotinamide] |
| 73 nM | FC(F)(F)c1onc(-c2ccccc2)c1-c1cn(-c2ncccn2)cn1 [Example 54, 2-[4-(3-Phenyl-5-trifluoromethyl-isoxazol-4-yl)-imidazol-1-yl]-pyrimidine] |
| 14.1 nM | O=C(NC1CC1)c1cnc(-n2cnc(-c3c(-c4ccccc4)noc3C(F)(F)F)c2)cn1 [Example 55, 5-[4-(3-Phenyl-5-trifluoromethyl-isoxazol-4-yl)-imidazol-1-yl]-pyrazine-2-carboxylic acid cyclopropylamide] |
